Experimental data from patent publication US6730675B2 (AstraZeneca AB, priority 1999, dated 2004).

These compounds were tested on CCI rats (thermal hyperalgesia) (assay: Test C: Neuropathic pain model (Chronic Constriction Injury), thermal hyperalgesia paw-withdrawal test). Conditions: oral, at the MED, compared to vehicle-treated animals.
Type: in vivo, rat
Text: Test C: Neuropathic Pain Model (Chronic Constriction Injury): […]

SMILES	Test C % Inh. (percent decrease of hyperalgesia) at MED [%]
Cc1ccsc1Cn1nc(O)c2[nH]c3cc(Cl)ccc3c(=O)c2c1=O [Ex. 2, 7-Chloro-4-hydroxy-2-[2-(3-methyl)thienylmethyl]-1,2,5,10-tetrahydropyridazino[4,5-b]quinoline-1,10-dione]	−15

Same assay, conditions: oral, three times daily for 5 days, dose giving statistically significant decrease in hyperalgesia

SMILES	Test C MED (minimum effective dose) [mg/kg/day]
Cc1ccsc1Cn1nc(O)c2[nH]c3cc(Cl)ccc3c(=O)c2c1=O [Ex. 2, 7-Chloro-4-hydroxy-2-[2-(3-methyl)thienylmethyl]-1,2,5,10-tetrahydropyridazino[4,5-b]quinoline-1,10-dione]	30

The compounds below were run against T1, NMDA receptor glycine site (Rattus norvegicus, UniProt P35439) (assay: Test A: Inhibition of binding of [3H]-MDL105,519 to brain membranes). Conditions: displacement of 1.2 nM [3H]MDL105,519, brain membranes.
T1 construct: The rat brain membranes used in the experiments were obtained from Analytical Biological Services Inc; tissue Analytical Biological Services Inc; host or cells: rat brain membranes (cerebral cortex and hippocampus, male Sprague Dawley rats)
Text: Test A: Inhibition of Binding of [^3H]-MDL105,519:
Binding of compounds to the NMDA receptor glycine site may be assessed by measuring the ability of test compounds to inhibit the binding of tritiated MDL105,519 to brain membranes bearing the receptor.
Briefly, fresh brain tissue including cerebral cortex and hippocampus from male Sprague Dawley rats was homogenized in 0.32 M sucrose and centrifuged at low speed to separate cellular membranes from other cellular components. The membranes were then washed 3 times using deionized water, followed by treatment with 0.04% Triton X-100. Finally, membranes were washed six times in 50 mM Tris citrate buffer, pH 7.4, and frozen at −80° C. until use.
[^3H]MDL105,519 (72 Ci/mmol) was purchased from Amersham. Cold MDL105,519 was purchased from Sigma/RBI. Binding assays were performed substantially in accordance with the protocol of B. M. Baron et al., J. Phannacol. […] On the day of the experiment, brain membranes were thawed at room temperature and suspended in 50 mM tris acetate buffer, pH 7.4 (“TAB”). Seventy-five micro grams per milliliter protein (by using the BioRad dye) were used for competition binding. The experiments were carried out using 96-well plates. […] Non specific binding was determined by using 100 μM of unlabeled MDL105,519. […] After incubation, unbound [^3H]MDL105,519 was removed by filtration onto GF/B Unifilter plates using a Packard harvester. Filters were washed four times with ice cold TAB (total of 1.2 mL buffer). The plates were dried overnight at room temperature and bound radioactivity was measured on a Packard TopCount after the addition of 45 μL per well of the MICROSCINT O.
Human Brain Membranes: Human brain membranes were obtained from Analytical Biological Services Inc., and assays were performed as described for rat membranes.
Data analysis: Data was analyzed using a Microsoft Excel spreadsheet and GraphPad Prizm software and potency of compounds is expressed as the Ki (nM).

SMILES	Ki [µM]
Cc1c(Cn2nc(O)c3[nH]c4cc(Cl)ccc4c(=O)c3c2=O)sc2ccccc12	0.161
Cc1[nH]cnc1Cn1nc(O)c2nc3cc(Cl)ccc3c(O)c2c1=O	0.434
Cc1ccc(Cn2nc(O)c3[nH]c4cc(Cl)ccc4c(=O)c3c2=O)s1 [Ex. 9, 7-Chloro-4-hydroxy-2-(5-methylthien-2-ylmethyl)-1,2,5,10-tetrahydropyridazino[4,5-b]quinoline-1,10-dione]	0.028

Other lines, results leading:

Ki [µM]	SMILES
0.298	O=c1c2ccc(Cl)cc2[nH]c2c(O)nn(Cc3ccc(-c4ccccc4Cl)o3)c(=O)c12 [Ex. 6, 7-Chloro-4-hydroxy-2-{[5-(2-chlorophenyl)(2-furyl)]methyl}-1,2,5,10-tetrahydropyridazino[4,5-b]quinoline-1,2-dione]
0.072	COC(=O)c1ccc(Cn2nc(O)c3[nH]c4cc(Cl)ccc4c(=O)c3c2=O)o1 [Ex. 8, 7-Chloro-4-hydroxy-2-(5-methoxycarbonyl(furan-2-yl)methyl)-1,2,5,10-tetrahydropyirdazino[4,5-b]quinolin-1,10-dione]
0.028	Cc1occc1Cn1nc(O)c2[nH]c3cc(Cl)ccc3c(=O)c2c1=O [Ex. 4, 7-Chloro-4-hydroxy-2-[(2-methyl(furan-3-yl))methyl]-1,2,5,10-tetrahydropyridazinol[4,5-b]quinonline-1,10-dione]
0.0248	Cc1cc(Cn2nc(O)c3[nH]c4cc(Cl)ccc4c(=O)c3c2=O)c(C)o1 [Ex. 1, 7-Chloro-4-hydroxy-2-[3-(2,5-dimethyl)furanylmethyl]-1,2,5,10-tetrahydropyridazino[4,5-b]quinoline-1,10-dione]
